Assay results reported in article PMC12040169 (PLOS Biology, 2025).

Experiment: in vitro
Conditions: human, hela cells, % viability

SMILES | viability at 28.5 h, 10 µM [%]
O=C(O)CSc1ccccc1[N+](=O)[O-] [CBK111324] | 86.8
CS(=O)(=O)N1CC2(CCN(Cc3ccccc3F)CC2)c2ccccc21 [CBK084004] | 103
O=C(Nc1cccc(C(=O)O)c1)/C(=C\c1ccccc1)NC(=O)c1ccccc1Cl [CBK263710] | 90.4
O=c1c(Cl)c(O)c2ccccc2n1Cc1ccccc1 [CBK291164] | 91.2
O=C(O)CNC(=O)CNC(=O)C12CC3CC(CC(C3)C1)C2 [CBK287083] | 81.4
O=C(O)CN1C(=O)C(=Cc2ccc(-c3ccc(Br)cc3)o2)SC1=S [CBK296075] | 92.2
CCn1c(CC2CCN(c3nc(C)cc(C)c3C#N)CC2)nn(C)c1=O [CBK307027] | 111
Oc1cccc(/C=N/Nc2nncc(-c3ccccc3)n2)c1 [CBK262468] | 86.6
CC(=O)Nc1ccc(/C(C)=N\NC(=O)CCN2CCCCC2)cc1 [CBK263509] | 95.9
Nc1cc2cccnc2nc1-c1cccc2cccnc12 [CBK067609] | 99.9
Cc1cc(C)nc(Nc2n[nH]c(Cc3ccccc3)n2)n1 [CBK267023] | 96.3
CCCCc1c(O)nc(SCC(=O)NCC2CCCO2)[nH]c1=O (centres unmarked) [CBK073281] | 97.6
CC(C)Nc1nc(Cl)nc(Nc2ccc(I)cc2)n1 [CBK027685] | 97.6
O=C(NC(CN1CCOCC1)c1ccccc1)c1cnc(-c2ccc(Cl)cc2)c(-c2ccncc2)c1 (centres unmarked) [CBK037604] | 100
Cc1ccccc1NC(=O)Cn1c(=O)cnc2ccccc21 [CBK287852] | 100
Oc1ccc(-c2cncc(Nc3ccc(Br)c(Cl)c3)n2)cc1 [CBK107806] | 89.4
CC(NC(=O)CCc1cnn(C)c1)c1cccc(-n2ccnc2)c1 (centres unmarked) [CBK306139] | 97.3
CCc1c(CC)c(OC(=O)C(N)C(C)C)c2ccccc2c1OC (centres unmarked) [CBK016484C] | 93.4
COc1cc(-c2nccnc2NCCCO)cc(OC)c1OC [CBK037274] | 105
O=C(c1ccc(=O)[nH]n1)N1C2CCC1CC(c1ccc(F)cc1)C2 (centres unmarked) [CBK283737] | 94.4
CCOc1ccccc1/C=N/Nc1ccccc1[N+](=O)[O-] [CBK261673] | 94.7
COc1cccc(C(=O)N2CCN(C(=O)Nc3ccccc3Br)CC2)c1 [CBK154783] | 94.4
COc1ccc(N2CCN(Cc3nc4c(c(=O)n(C)c(=O)n4C)n3CC(C)=O)CC2)cc1 [CBK269465] | 103

SMILES | viability at 28.5 h, 10 µM [%]
COc1ccc(-c2nnc3ccc(SCC(=O)N4CCCC4)nn23)cc1OC [CBK287527] | 85.9
COc1ccc(C2N(CCC(=O)O)CCOC23CCN(C(=O)c2ccc4ccccc4c2)CC3)cc1 (centres unmarked) [CBK115960] | 102
Cc1ccc(S(=O)(=O)N2CCOCC2)cc1-c1cncc(-c2ccc(O)cc2)n1 [CBK123789] | 103
O=C1/C(=C/c2c(NCCCn3ccnc3)nc3ccccn3c2=O)SC(=S)N1CC1CCCO1 (centres unmarked) [CBK111310] | 99.3
CN(C)Cc1ccccc1-n1ncc(CN2CCS(=O)(=O)CC2)n1 [CBK112877] | 107
O=C(NCc1ccc(F)cc1)c1ncoc1-c1cccs1 [CBK283976] | 91.7
COc1ccc(-c2ccc(OC3CCNCC3)cc2)c(OC)c1 [CBK093816T] | 91.2
CC(=O)c1cccc(NC(=O)Nc2cccc(S(=O)(=O)N3CCOCC3)c2)c1 [CBK266996] | 89.9
O=C(CC1CCCCC1)N1CCN(c2ncccn2)CC1 [CBK144529] | 102
COc1ccc(CN2CCN(Cc3cc(Br)ccc3O)CC2)cc1OC [CBK263632] | 95.5
Cc1ncccc1-c1cc2cccnc2n1CCCNC(=O)C1CC1 [CBK282687] | 81.5
COc1ccc(S(=O)(=O)NCCNC(=O)c2cc(-c3cccnc3)cnc2NCc2ccc3c(c2)OCO3)cc1 [CBK076379] | 101
CC(=O)Nc1nnc(SCC(=O)N2CCN(c3ccc(Cl)cc3)CC2)s1 [CBK307384] | 86.6
COC(=O)c1sc2ncccc2c1NS(=O)(=O)c1cc(Br)c(Cl)s1 [CBK049973] | 112
COc1ccc(OCC(=O)Nc2ccc(C(=O)O)c(Cl)c2)cc1 [CBK287108] | 104
Nc1ncc2ncn([C@H]3C[C@@H](O)[C@@H](CO)O3)c2n1 [CBK201303] | 102
CC(=O)N[C@@H](Cc1ccccc1)C(=O)N1CC[C@H]2NC(=O)[C@H](Cc3ccccc3)NC(=O)C3(C/C=C/C[C@@H]2C1)CCOCC3 [CBK292190] | 82.2
N=C1/C(=C/c2ccc(-c3cccc([N+](=O)[O-])c3)o2)C(=O)N=C2SC(SCc3ccccc3)=NN12 [CBK265354] | 88.5
CCCNc1cc(C)c(C#N)c2nc3ccccc3n12 [CBK288097] | 94
CN(C)C(=O)c1ccc(-c2ccc(COC3CCN(C(=O)c4cc5ccccc5o4)CC3)c(S(C)(=O)=O)c2)cc1 [CBK155965] | 94.6
Cn1nccc1CN1CCCC(COc2ccccc2F)C1 (centres unmarked) [CBK281663] | 87.2
CC(=O)c1cccc(NC(=O)CN2CCCC2c2cccs2)c1 (centres unmarked) [CBK305143] | 109
COc1ccc(OC(C)(C)C(=O)N2CCCC(c3ccc(Nc4ncccn4)cn3)C2)cc1 (centres unmarked) [CBK285970] | 83.9

SMILES | viability at 28.5 h, 10 µM [%]
NC(=O)c1cc(Cc2ccccc2)sc1NC(=O)c1cccnc1 [CBK268168] | 96.2
Cc1cc2cc(CCNC(=O)C(=O)c3c[nH]c4ccccc34)c(O)nc2cc1C [CBK287511] | 89.5
Cc1cccc(NC(S)=NCc2ccccn2)c1 [CBK264174] | 104
N#Cc1ccccc1CSc1nc(N)cc(O)n1 [CBK267967] | 98.3
COc1cccc(CNc2ccc(-c3nc4ncccc4o3)cc2)c1OC [CBK269716] | 91
Fc1ccc(-c2cncc(NCCc3ccncc3)n2)c(F)c1 [CBK065810] | 104
CC(C)n1c(NCc2nc3ccccc3n2C)nc2ccccc21 [CBK265571] | 83.6
OCc1ccc(CN2C[C@H](O)C[C@H]2c2nc(-c3cnccn3)no2)o1 [CBK288832] | 91.9
COc1ccc(C2CCN(CC(=O)N3CCCC3)CC2)cc1 [CBK283561] | 101
COC(=O)c1ccc(N2CCN(Cc3nc(C4CC4)no3)C(C)C2)cc1 (centres unmarked) [CBK305744] | 98
NC(=O)C1CCN(C(=O)c2cc(O)nc3ccccc23)CC1 [CBK296719] | 98.2
CC1(C(=O)NC2CCN(Cc3cccc(F)c3)CC2)CCCO1 (centres unmarked) [CBK282658] | 91.6
Cc1nn(C)c(C)c1CCC(=O)NCC1CCN(c2ccccc2F)C1 (centres unmarked) [CBK304357] | 96.7
CCNC(=O)CN1CCN(c2nc(C(F)(F)F)ccc2C#N)CC1 [CBK305515] | 86.4
O=c1[nH]c(=O)c2cc(S(=O)(=O)NCC3(c4ccccc4)CCCC3)ccc2[nH]1 [CBK286387] | 112
Cc1ccc2[nH]cc(CCN3CCC4(CC3)NCCc3c4[nH]c4ccc(OCc5ccccc5)cc34)c2c1 [CBK039342] | 91.8
COc1ccc(Oc2nccnc2N2CCN(CCc3ccccn3)CC2)cc1OC [CBK083067T] | 93.2
Cc1cnc(CNC(=O)N2CCN(c3cc(C(F)(F)F)ccn3)CC2)cn1 [CBK162320] | 107
CN(C)CCSc1cc(N2CCCC2)ncn1 [CBK105295] | 116
Cc1ccccc1CN1CC[C@H]2[C@@H](C1)[C@H](c1ccsc1)CN2C(=O)c1ccccc1 [CBK285618] | 100
COc1nccnc1N1CCN(CCSC)CC1 [CBK084227] | 90.2
Cc1ccc(Nc2nc3c(c(=O)[nH]2)CCCC3)cc1 [CBK287895] | 100
COc1cc(CNCCO)cc(Br)c1OCc1cccnc1 [CBK269681C] | 100

SMILES | viability at 28.5 h, 10 µM [%]
CC(O)CNc1nccnc1-c1ccccc1 (centres unmarked) [CBK089257] | 95.7
CC(C)C(=O)N1CCC[C@@H](Cn2nc(-c3cccs3)ccc2=O)C1 [CBK282317] | 96.5
C[C@@H](c1ccccc1)N1C(=O)[C@@H]2CN(C(=O)CC3(CC(=O)O)CCCC3)CCN2C1=O [CBK289637] | 88.7
COc1ccccc1/C=C/CN(C)CCN(C)C [CBK261888] | 88.5
NNC(=O)C(Oc1ccccc1)Oc1ccccc1 [CBK261210] | 100
Cc1ccc(SCC(=O)Nc2ccc(O)cc2C(=O)O)cc1 [CBK131703] | 118
O=S(=O)(Cc1ccc(Cl)cc1Cl)N1CCOCC1 [CBK058967] | 78.1
NCCCNc1ccc(C(=O)Nc2ccc(Cl)cc2)cc1[N+](=O)[O-] [CBK267880] | 116
CCC(C)(C)c1ccc(S(=O)(=O)N2CCN(CCCC#N)CC2)cc1 [CBK063134] | 93.4
CNC(=O)c1ccc(-c2ccc(CNC(=O)CCc3cccc(Cl)c3)cc2)nc1C [CBK286015] | 86.9
CC(=O)N1CCN(Cc2nc3cc(NC(=O)Cn4nc(C)c5ccccc5c4=O)ccc3n2C)CC1 [CBK267989] | 87.8
Cc1cc(C)n(CCC(=O)N2C[C@@H]3CCCCN(CC4CC4)[C@@H]3C2)n1 [CBK285505] | 102
Cn1c(N2CC[C@H](O)C2)nc2cc(C(=O)NC3CCNCC3)ccc21 [CBK306873] | 98.1
Cc1cc(NC(c2cccc([N+](=O)[O-])c2)c2ccc3cccnc3c2O)no1 (centres unmarked) [CBK296083] | 89.1
CCOC(=O)c1cc(C(N)=S)c(C)nc1C(F)(F)F [CBK028734] | 92.8
Cc1ccn2c(=O)cc(COC(=O)c3sc4nc(C)cc(C)c4c3N)nc2c1 [CBK297783] | 93.3
CC(C)N(CCOc1nccnc1/C=C/c1ccccc1)C(C)C [CBK106889] | 96
COc1cccc(C2CC(c3cccc(Cl)c3)n3nc(N)nc3N2)c1 (centres unmarked) [CBK293966] | 85.1
C1=CCC(CN2CCN(C3CCN(Cc4ccccc4)CC3)CC2)CC1 (centres unmarked) [CBK263469] | 91.6
Fc1cnc(Nc2ccccc2)nc1N1CCOCC1 [CBK287279] | 76.5
